{
  "source": "patent US20210155895A1",
  "about": "“Pluripotent Stem Cell-Derived 3D Retinal Tissue and Uses Thereof” (LINEAGE CELL THERAPEUTICS, INC., priority 2016, published 2021)",
  "origin": "cited, not measured here",
  "key": {"histone H3": {"tested_on": "histone H3", "settings": "Koriyama et al. 2014"}, "PR (photoreceptors)": {"tested_on": "PR (photoreceptors)", "settings": "zaprinast 100 μM"}},
  "data": [
    {"smiles": "CN(N=O)C(N)=O", "note": "[MNU, N-methyl, N-nitrosourea]", "values": [
      {"measurement": "time to PR cell death after application", "setting": "PR (photoreceptor) cells", "result": "≤ 7", "unit": "days"},
      {"measurement": "PR cell death", "setting": "PR (photoreceptor) cells; involving the caspase pathway", "result": "selective and progressive PR cell death"}
    ]},
    {"smiles": "CCCC(CCC)C(=O)O", "note": "[valproic acid]", "values": [
      {"measurement": "effect on histone H3 acetylation", "setting": "histone H3", "result": "induces histone H3 acetylation"}
    ]},
    {"smiles": "CCCOc1ccccc1-c1nc2nn[nH]c2c(=O)[nH]1", "note": "[zaprinast]", "values": [
      {"measurement": "PR degeneration", "setting": "PR (photoreceptors)", "result": "induces PR degeneration at a level comparable to that observed in the mouse rd1 model"},
      {"measurement": "effect on intracellular cGMP", "setting": "PR (photoreceptors)", "result": "raises intracellular cGMP"}
    ]}
  ]
}
